Earlier results as cited in PMC2931793 (Journal of neuroscience methods, 2008).

Tested on: IDE
Details: ref Song et al., 2001

Row | Substance | Vmax of IDE-mediated cleavage
1 | Abz-GGFLRKGVQ-EDDnp | ~ 0.2 μmol min^−1 mg^−1
2 | β-endorphin | 2.6 µmol/min/mg
